Reference: ChEMBL document CHEMBL4831503, “Design, synthesis, in vitro and in vivo anti-respiratory syncytial virus (RSV) activity of novel oxizine fused benzimidazole derivatives” (Eur J Med Chem, 2021)
Calls of active or inactive are those of the source. The rule behind the calls is not given here.

Legend:
[1] = system: Respiratory syncytial virus; assay: Antiviral activity against RSV infected in BALB/c mouse assessed as downregulation of IL-10 expression in lung tissue infected with RSV at 50 mg/kg/day measured after 2 to 6 days post infection by RT-PCR analysis; format: functional, organism-based; conditions: time 2-6 day
[2] = Selectivity index, ratio of CC50 for human HEp-2 cells to EC50 for Respiratory syncytial virus infected in human HEp-2 cells; format: toxicity, cell-based; conditions: read-out: Selectivity Index
[3] = system: Respiratory syncytial virus; assay: Antiviral activity against Respiratory syncytial virus infected in human HEp-2 cells incubated for 60 hrs by MTT assay; format: functional, organism-based; conditions: HEp-2, 60 h
[4] = Cytotoxicity against human HEp-2 cells assessed as reduction in cell viability measured after 60 hrs by MTT assay; format: cell-based
[5] = system: Respiratory syncytial virus; assay: Antiviral activity against RSV infected in human HEp-2 cells assessed as downregulation of RIG-1 expression at 25 uM treated 48 hpi and measured after 48 hrs by Western blot analysis; format: functional, organism-based
[6] = system: Respiratory syncytial virus; assay: Inhibition of RSV induced apoptosis in human HEp-2 cells assessed as early apoptotic cells at 25 uM measured after 60 hrs by Annexin V-FITC/PI staining based flow cytometry analysis (reference value: 10.3%); format: functional; parameters: scale not given: the % may be the effect or the level left
[7] = system: Respiratory syncytial virus; assay: Inhibition of RSV induced apoptosis in human HEp-2 cells assessed as reduction in PARP cleavage measured after 48 hrs by Western blot analysis; format: functional, organism-based
[8] = system: Respiratory syncytial virus; assay: Antiviral activity against RSV infected in human HEp-2 cells assessed as downregulation of NF-kappaB expression at 25 uM treated 48 hpi and measured after 48 hrs by Western blot analysis; format: functional, organism-based
[9] = system: Respiratory syncytial virus; assay: Antiviral activity against RSV Long infected in BALB/c mouse assessed as improvement in lung congestion at 25 to 100 mg/kg/day observed on day 6 after infection by H and E staining based microscopic analysis; format: functional, organism-based; conditions: dose 25-100 mg/kg/day, time 6.0 day
[10] = system: Respiratory syncytial virus; assay: Antiviral activity against RSV Long infected in BALB/c mouse assessed as reduction in lung tissue damage by measuring lung index at 50 mg/kg/day measured after 4 to 6 days of virus infection; format: functional, organism-based; conditions: time 4-6 day
[11] = system: Respiratory syncytial virus; assay: Inhibition of RSV induced apoptosis in human HEp-2 cells assessed as late apoptotic cells at 25 uM measured after 60 hrs by Annexin V-FITC/PI staining based flow cytometry analysis (reference value: 20.2%); format: functional; parameters: scale not given: the % may be the effect or the level left
[12] = system: Respiratory syncytial virus; assay: Inhibition of RSV induced apoptosis in human HEp-2 cells assessed as reduction in cleaved caspase-7 expression measured after 48 hrs by Western blot analysis; format: functional, organism-based
[13] = system: Respiratory syncytial virus; assay: Antiviral activity against RSV infected in BALB/c mouse assessed as inhibition of viral replication by measuring RSV-M gene expression in lung after 2 to 6 days post infection by RT-PCR analysis; format: functional, organism-based; conditions: time 2-6 day
[14] = system: Respiratory syncytial virus; assay: Antiviral activity against RSV infected in BALB/c mouse assessed as downregulation of IL-6 expression in lung tissue infected with RSV at 50 mg/kg/day measured after 2 days post infection by RT-PCR analysis; format: functional, organism-based; conditions: time 2.0 day
[15] = system: Respiratory syncytial virus; assay: Antiviral activity against RSV infected in BALB/c mouse assessed as downregulation of TLR3 expression in lung tissue infected with RSV at 50 mg/kg/day measured after 2 to 6 days post infection by RT-PCR analysis; format: functional, organism-based; conditions: time 2-6 day
[16] = system: Respiratory syncytial virus; assay: Antiviral activity against RSV infected in BALB/c mouse assessed as downregulation of IRF3 expression in lung tissue infected with RSV at 50 mg/kg/day measured after 2 to 4 days post infection by RT-PCR analysis; format: functional, organism-based; conditions: time 2-4 day
[17] = system: Respiratory syncytial virus; assay: Antiviral activity against RSV infected in BALB/c mouse assessed as downregulation of iNOS expression in lung tissue infected with RSV at 50 mg/kg/day measured after 2 to 6 days post infection by RT-PCR analysis; format: functional, organism-based; conditions: time 2-6 day
[18] = system: Respiratory syncytial virus; assay: Inhibition of RSV induced apoptosis in human HEp-2 cells assessed as reduction in cleaved caspase-9 expression measured after 48 hrs by Western blot analysis; format: functional, organism-based
[19] = system: Respiratory syncytial virus; assay: Antiviral activity against RSV infected in BALB/c mouse assessed as downregulation of TNF-alpha expression in lung tissue infected with RSV at 50 mg/kg/day measured after 2 to 6 days post infection by RT-PCR analysis; format: functional, organism-based; conditions: time 2-6 day
[20] = system: Respiratory syncytial virus; assay: Inhibition of RSV induced apoptosis in human HEp-2 cells assessed as reduction in cleaved caspase-3 expression measured after 60 hrs by Western blot analysis; format: functional, organism-based
[21] = system: Respiratory syncytial virus; assay: Antiviral activity against RSV infected in BALB/c mouse assessed as downregulation of RIG-1 expression in lung tissue infected with RSV at 50 mg/kg/day measured after 2 days post infection by RT-PCR analysis; format: functional, organism-based; conditions: time 2.0 day
[22] = system: Respiratory syncytial virus; assay: Antiviral activity against RSV Long infected in BALB/c mouse assessed as inhibition of alveolar infiltrates accumulation at 50 mg/kg/day observed on day 6 after infection by H and E staining based microscopic analysis; format: functional, organism-based; conditions: time 6.0 day
[23] = Inhibition of RSV induced ROS production in human HEp-2 cells assessed as reduction in accumulation of ROS-positive cells at 25 uM measured after 36 hrs by DCHF-DA staining based flow cytometry analysis (reference value: 82.2%); format: functional, Respiratory syncytial virus; parameters: scale not given: the % may be the effect or the level left
[24] = Toxicity in BALB/c mouse infected with RSV-Long assessed as body weight loss at 50 mg/kg/day administered via gastric gavage once daily for 6 days; format: organism-based; conditions: in vivo, po, 144 h, time 6 day
[25] = system: Respiratory syncytial virus; assay: Antiviral activity against RSV infected in BALB/c mouse assessed as downregulation of IL-8 expression in lung tissue infected with RSV at 50 mg/kg/day measured after 2 to 6 days post infection by RT-PCR analysis; format: functional, organism-based; conditions: time 2-6 day

Cc1c(Br)cc2nc3n(c2c1Br)[C@H]1OC[C@@H](OCc2ccccc2)[C@H]1OC3
Activity [1]: Active
selectivity ratio [2]: 2.59
EC50 [3]: 44.5 µM
CC50 at 60 h [4]: 115 µM

Cc1cc2nc3n(c2cc1C)C[C@@H]([C@H](O)CO)OC3
CC50 at 60 h [4]: 574 µM

NC(=O)c1ncn([C@@H]2O[C@H](CO)[C@@H](O)[C@H]2O)n1 [RIBAVIRIN]
Activity [5]: Active
Activity [6]: 0.3%
inhibition [7]: Active
Activity [8]: Active
Activity [9]: Active
Activity [10]: Active
Activity [11]: 7.6%
Activity [1]: Active
inhibition [12]: Active
selectivity ratio [2]: 22.6
Activity [13]: Active
Activity [14]: Active
Activity [15]: Active
Activity [16]: Active
Activity [17]: Active
inhibition [18]: Active
EC50 [3]: 18.5 µM
Activity [19]: Active
inhibition [20]: Active
CC50 at 60 h [4]: 418 µM
Activity [21]: inactive
Activity [22]: Active
Activity [23]: 62.7%
Activity [24]: Toxic
Activity [25]: Active

Cc1c(Br)cc2c(nc3n2[C@H]2OC[C@@H](O)[C@H]2OC3)c1Br
CC50 at 60 h [4]: 34.3 µM

Cc1c(Br)cc2nc3n(c2c1Br)[C@H]1OC[C@@H](OS(C)(=O)=O)[C@H]1OC3
selectivity ratio [2]: 3.96
EC50 [3]: 5.98 µM
CC50 at 60 h [4]: 23.7 µM

CS(=O)(=O)O[C@@H]1CO[C@H]2[C@@H]1OCc1nc3cc(Br)c(Br)cc3n12
selectivity ratio [2]: 1.13
EC50 [3]: 87.9 µM
CC50 at 60 h [4]: 99.5 µM

COc1ccc2c(nc3n2[C@H]2OC[C@@H](O)[C@H]2OC3)c1N
selectivity ratio [2]: 9.66
EC50 [3]: 11.3 µM
CC50 at 60 h [4]: 109 µM

OC[C@@H](O)[C@@H]1Cn2c(nc3cc(F)c(F)cc32)CO1
selectivity ratio [2]: 10
EC50 [3]: 65.2 µM
CC50 at 60 h [4]: 653 µM

Cc1cc2nc3n(c2cc1C)[C@H]1OC[C@@H](O)[C@H]1OC3
CC50 at 60 h [4]: 492 µM

COc1ccc2c(c1)nc1n2[C@H]2OC[C@@H](O)[C@H]2OC1
CC50 at 60 h [4]: > 800 µM

Cc1c(Br)cc2nc3n(c2c1Br)[C@H]1OC[C@H](N=[N+]=[N-])[C@H]1OC3
CC50 at 60 h [4]: 21.4 µM

O[C@@H]1CO[C@H]2[C@@H]1OCc1nc3ccccc3n12
CC50 at 60 h [4]: 564 µM

Cc1ccc(S(=O)(=O)O[C@@H]2CO[C@H]3[C@@H]2OCc2nc4c(Br)c(C)c(Br)cc4n23)cc1
selectivity ratio [2]: 5.68
EC50 [3]: 1.57 µM
CC50 at 60 h [4]: 8.94 µM

COc1ccc2c(nc3n2[C@H]2OC[C@@H](O)[C@H]2OC3)c1[N+](=O)[O-]
CC50 at 60 h [4]: 468 µM

O[C@@H]1CO[C@H]2[C@@H]1OCc1nc3cc(F)c(F)cc3n12
EC50 [3]: > 400 µM
CC50 at 60 h [4]: 512 µM

Cc1c(Br)cc2c(nc3n2[C@H]2OC[C@@H](OCc4ccccc4)[C@H]2OC3)c1Br
CC50 at 60 h [4]: 25.6 µM

Cc1ccc(S(=O)(=O)O[C@@H]2CO[C@H]3[C@@H]2OCc2nc4cc(Br)c(Br)cc4n23)cc1
selectivity ratio [2]: 1.35
EC50 [3]: 64.7 µM
CC50 at 60 h [4]: 87.5 µM

OC[C@@H](O)[C@@H]1Cn2c(nc3ccccc32)CO1
CC50 at 60 h [4]: > 800 µM

COc1c(Cl)cc2c(nc3n2[C@H]2OC[C@@H](O)[C@H]2OC3)c1Cl
CC50 at 60 h [4]: 411 µM

O[C@@H]1CO[C@H]2[C@@H]1OCc1nc3cc(Br)cc(Cl)c3n12
EC50 [3]: 86.2 µM
CC50 at 60 h [4]: > 800 µM

Cc1c(Br)cc2c(nc3n2[C@H]2OC[C@H](N=[N+]=[N-])[C@H]2OC3)c1Br
selectivity ratio [2]: 2.54
EC50 [3]: 13 µM
CC50 at 60 h [4]: 33.1 µM

COc1c(Br)cc2c(nc3n2[C@H]2OC[C@@H](O)[C@H]2OC3)c1Br
CC50 at 60 h [4]: 259 µM

Cc1ccc(S(=O)(=O)O[C@@H]2CO[C@H]3[C@@H]2OCc2nc4cc(Br)c(C)c(Br)c4n23)cc1
selectivity ratio [2]: 10.7
EC50 [3]: 8.28 µM
CC50 at 60 h [4]: 88.6 µM

O[C@@H]1CO[C@H]2[C@@H]1OCc1nc3cc(Cl)c(Cl)cc3n12
CC50 at 60 h [4]: 238 µM

O[C@@H]1CO[C@H]2[C@@H]1OCc1nc3cc(Br)c(Br)cc3n12
selectivity ratio [2]: 5.67
EC50 [3]: 31.9 µM
CC50 at 60 h [4]: 181 µM

COc1ccc2c(c1)nc1n2C[C@@H]([C@H](O)CO)OC1
CC50 at 60 h [4]: 366 µM

Cc1c(Br)cc2c(nc3n2[C@H]2OC[C@@H](OS(C)(=O)=O)[C@H]2OC3)c1Br
CC50 at 60 h [4]: 15.6 µM

[N-]=[N+]=N[C@H]1CO[C@H]2[C@@H]1OCc1nc3cc(Br)c(Br)cc3n12
CC50 at 60 h [4]: 77.4 µM
